Legend:
[1] = system: HOP-92; assay: NCI anticancer screening, Non-Small Cell Lung Cancer HOP-92; assay type: cell-based; details: Homo sapiens; HOP-92, 10 μM; read-out: % Growth Inhibition (GI %)
Excerpt: (§1) The compound has been processed according to standard method NCI-60 Human Tumor Cell Lines Screen for organic compound at development therapeutic program (DTP). Requests for access to this national resource can be submitted online at: […]

[2] = system: NCI-H226; assay: NCI anticancer screening, Non-Small Cell Lung Cancer NCI-H226; assay type: cell-based; details: Homo sapiens; NCI-H226, 10 μM; read-out: % Growth Inhibition (GI %)
Excerpt: as §1

[3] = system: NCI-H23; assay: NCI anticancer screening, Non-Small Cell Lung Cancer NCI-H23; assay type: cell-based; details: Homo sapiens; NCI-H23, 10 μM; read-out: % Growth Inhibition (GI %)
Excerpt: as §1

[4] = system: NCI-H322M; assay: NCI anticancer screening, Non-Small Cell Lung Cancer NCI-H322M; assay type: cell-based; details: Homo sapiens, read-out: % Growth Inhibition (GI %)
Excerpt: as §1

[5] = system: HCT-116; assay: NCI anticancer screening, Colon Cancer HCT-116; assay type: cell-based; details: Homo sapiens; HCT-116, 10 μM; read-out: % Growth Inhibition (GI %)
Excerpt: as §1

[6] = system: HT29; assay: NCI anticancer screening, Colon Cancer HT29; assay type: cell-based; details: Homo sapiens, HT-29; HT29, 10 μM; read-out: % Growth Inhibition (GI %)
Excerpt: as §1

[7] = system: SF-268; assay: NCI anticancer screening, CNS Cancer SF-268; assay type: cell-based; details: Homo sapiens; SF-268, 10 μM; read-out: % Growth Inhibition (GI %)
Excerpt: as §1

[8] = system: SF-295; assay: NCI anticancer screening, CNS Cancer SF-295; assay type: cell-based; details: Homo sapiens; SF-295, 10 μM; read-out: % Growth Inhibition (GI %)
Excerpt: as §1

[9] = system: SNB-19; assay: NCI anticancer screening, CNS Cancer SNB-19; assay type: cell-based; details: Homo sapiens; SNB-19, 10 μM; read-out: % Growth Inhibition (GI %)
Excerpt: as §1

[10] = system: U251; assay: NCI anticancer screening, CNS Cancer U251; assay type: cell-based; details: Homo sapiens, U-251; U251, 10 μM; read-out: % Growth Inhibition (GI %)
Excerpt: as §1

[11] = system: SK-MEL-2; assay: NCI anticancer screening, Melanoma SK-MEL-2; assay type: cell-based; details: Homo sapiens; SK-MEL-2, 10 μM; read-out: % Growth Inhibition (GI %)
Excerpt: as §1

[12] = system: SK-MEL-28; assay: NCI anticancer screening, Melanoma SK-MEL-28; assay type: cell-based; details: Homo sapiens; SK-MEL-28, 10 μM; read-out: % Growth Inhibition (GI %)
Excerpt: as §1

[13] = system: UACC-62; assay: NCI anticancer screening, Melanoma UACC-62; assay type: cell-based; details: Homo sapiens; UACC-62, 10 μM; read-out: % Growth Inhibition (GI %)
Excerpt: as §1

[14] = system: IGROV1; assay: NCI anticancer screening, Ovarian Cancer IGROV1; assay type: cell-based; details: Homo sapiens, IGROV-1; IGROV1, 10 μM; read-out: % Growth Inhibition (GI %)
Excerpt: as §1

[15] = system: OVCAR-5; assay: NCI anticancer screening, Ovarian Cancer OVCAR-5; assay type: cell-based; details: Homo sapiens; OVCAR-5, 10 μM; read-out: % Growth Inhibition (GI %)
Excerpt: as §1

[16] = system: OVCAR-8; assay: NCI anticancer screening, Ovarian Cancer OVCAR-8; assay type: cell-based; details: Homo sapiens; OVCAR-8, 10 μM; read-out: % Growth Inhibition (GI %)
Excerpt: as §1

[17] = system: NCI/ADR-RES; assay: NCI anticancer screening, Ovarian Cancer NCI/ADR-RES; assay type: cell-based; details: Homo sapiens, read-out: % Growth Inhibition (GI %)
Excerpt: as §1

[18] = system: 786-0; assay: NCI anticancer screening, Renal Cancer 786-0; assay type: cell-based; details: Homo sapiens; 786-0, 10 μM; read-out: % Growth Inhibition (GI %)
Excerpt: as §1

[19] = system: ACHN; assay: NCI anticancer screening, Renal Cancer ACHN; assay type: cell-based; details: Homo sapiens, read-out: % Growth Inhibition (GI %)
Excerpt: as §1

[20] = system: TK-10; assay: NCI anticancer screening, Renal Cancer TK-10; assay type: cell-based; details: Homo sapiens; TK-10, 10 μM; read-out: % Growth Inhibition (GI %)
Excerpt: as §1

[21] = system: DU-145; assay: NCI anticancer screening, DU-145; assay type: cell-based; details: Homo sapiens; DU-145, 10 μM; read-out: % Growth Inhibition (GI %)
Excerpt: as §1

[22] = system: HS 578T; assay: NCI anticancer screening, Breast Cancer HS 578T; assay type: cell-based; details: Homo sapiens, read-out: % Growth Inhibition (GI %)
Excerpt: as §1

[23] = system: BT-549; assay: NCI anticancer screening, Breast Cancer BT-549; assay type: cell-based; details: Homo sapiens; BT-549, 10 μM; read-out: % Growth Inhibition (GI %)
Excerpt: as §1

[24] = system: T-47D; assay: NCI anticancer screening, Breast Cancer T-47D; assay type: cell-based; details: Homo sapiens, T47D, read-out: % Growth Inhibition (GI %)
Excerpt: as §1

[25] = system: MDA-MB 231 cells; details: for inhibition: 5 µM
Experimental: Anticancer effect of the above-mentioned compounds was assayed using three human cancer cell lines. Triple negative breast cancer cell line (MDA-MB 231) and prostate cancer cell line (PC3) were cultured in DMEM (Lonza, USA) supplemented with 10% FBS. All cancer cells (4x10^3 cells/well) were seeded in sterile 96-well plates. After 24h, serial concentrations of the tested compounds were incubated with three cancer cell lines for 72 h at 37 °C in 5% CO2 incubator. […] The half maximal inhibitory concentration (IC50) values were calculated using the Graphpad Instat software.

[26] = target: T1, Mdm2 (residues 1–118 T47W) (Homo sapiens, UniProt Q00987, T47W); assay: MDM2 binding by microscale thermophoresis (MST)
T1 construct: Mdm2 (residues 1–118 T47W; 500 nM)
T1 sequence (Q00987 1-118 T47W): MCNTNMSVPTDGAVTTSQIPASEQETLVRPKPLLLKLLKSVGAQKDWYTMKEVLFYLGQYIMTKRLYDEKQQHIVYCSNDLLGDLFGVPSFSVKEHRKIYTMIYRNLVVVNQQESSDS
Experimental: MST is a complementary biophysical assay to assess the binding of a small molecule to its receptor. […] Experiments were performed in 50 mM phosphate buffer at pH 7.4 containing 150 mM NaCl, 5 mM DTT, and 5% DMSO. […] Kd values and uncertainties were calculated using the MO Affinity Analysis software.

Compound | inhibition at 10 µM [1] [%] | inhibition at 10 µM [2] [%] | inhibition at 10 µM [3] [%] | inhibition at 10 µM [4] [%] | inhibition at 10 µM [5] [%] | inhibition at 10 µM [6] [%] | inhibition at 10 µM [7] [%] | inhibition at 10 µM [8] [%] | inhibition at 10 µM [9] [%] | inhibition at 10 µM [10] [%] | inhibition at 10 µM [11] [%] | inhibition at 10 µM [12] [%] | inhibition at 10 µM [13] [%] | inhibition at 10 µM [14] [%] | inhibition at 10 µM [15] [%] | inhibition at 10 µM [16] [%] | inhibition at 10 µM [17] [%] | inhibition at 10 µM [18] [%] | inhibition at 10 µM [19] [%] | inhibition at 10 µM [20] [%] | further results
O=C(c1nc2ccccc2[nH]1)[C@H]1[C@H](c2ccc(C(F)(F)F)cc2)C2CSCN2[C@]12C(=O)Nc1ccccc12 (stereo partly drawn) [Compound 6c, (3S,6′R)-6'-(1H-Benzo [d]imidazole-2-carbonyl)-7'-(4-(trifluoromethyl)phenyl)-3′,6′,7′,7a′-tetrahydro-1′H-spiro [indoline-3.5′-pyrrolo [1,2-c]thiazol]-2-one] | 109 | 79 | 82.3 | 91.1 | 60 | 74.7 | 90.2 | 95.3 | 84.9 | 93.2 | 108 | 97.7 | 77.5 | 67.8 | 96.1 | 98.8 | 86 | 99.4 | 89.6 | 120 | inhibition at 10 µM [21]: 97%; inhibition at 10 µM [22]: 83.9%; inhibition at 10 µM [23]: 107%; inhibition at 10 µM [24]: 69.7%; IC50 [25]: 3.34 ± 0.21 µM; inhibition [25]: 55.5 ± 2.5%
O=C(c1nc2ccccc2[nH]1)[C@H]1[C@H](c2cccc(O)c2)C2CSCN2[C@]12C(=O)Nc1ccccc12 (stereo partly drawn) [Compound 6h, (3S,6′R)-6'-(1H-Benzo [d]imidazole-2-carbonyl)-7'-(3-hydroxyphenyl)-3′,6′,7′,7a′-tetrahydro-1′H-spiro [indoline-3.5′-pyrrolo [1,2-c]thiazol]-2-one] | 98.3 | 99.1 | 99.3 | 93.5 | 89 | 104 | 88.5 | 105 | 97.8 | 98.9 | 102 | 95.3 | 80 | 87.9 | 92.9 | 97 | 97.1 | 101 | 92.8 | 113 | Kd [26]: 6.68 µM; inhibition at 10 µM [21]: 105%; inhibition at 10 µM [22]: 80.4%; inhibition at 10 µM [23]: 107%; inhibition at 10 µM [24]: 76.3%; IC50 [25]: 5.44 ± 0.167 µM; inhibition [25]: 40.2%
O=C(c1nc2ccccc2[nH]1)[C@H]1[C@H](c2ccccc2O)C2CSCN2[C@]12C(=O)Nc1ccccc12 (stereo partly drawn) [Compound 6j, (3S,6′R)-6'-(1H-Benzo [d]imidazole-2-carbonyl)-7'-(2-hydroxyphenyl)-3′,6′,7′,7a′-tetrahydro-1′H-spiro [indoline-3.5′-pyrrolo [1,2-c]thiazol]-2-one] | 97.3 | 91.3 | 96.5 | 99.8 | 96.3 | 99.3 | 91.7 | 96.3 | 93.7 | 95.8 | 104 | 99 | 77.3 | 92.1 | 102 | 97.7 | 95.9 | 106 | 92.2 | 115 | inhibition at 10 µM [21]: 98.7%; inhibition at 10 µM [22]: 85%; inhibition at 10 µM [23]: 93.6%; inhibition at 10 µM [24]: 80.9%; IC50 [25]: 4.665 ± 0.009 µM; inhibition [25]: 40.8 ± 1.63%
CN(C)c1ccc([C@@H]2C3CSCN3[C@]3(C(=O)Nc4ccccc43)[C@H]2C(=O)c2nc3ccccc3[nH]2)cc1 (stereo partly drawn) [Compound 6k, (3S,6′R)-6'-(1H-Benzo [d]imidazole-2-carbonyl)-7'-(4-(dimethylamino)phenyl)-3′,6′,7′,7a′-tetrahydro-1′H-spiro [indoline-3.5′-pyrrolo [1,2-c]thiazol]-2-one] | 104 | 91.4 | 94.3 | 99.8 | 102 | 99.3 | 92.1 | 103 | 91.7 | 103 | 106 | 96.1 | 84.4 | 89.8 | 95.6 | 105 | 96 | 103 | 99 | 111 | inhibition at 10 µM [21]: 104%; inhibition at 10 µM [22]: 91.7%; inhibition at 10 µM [23]: 108%; inhibition at 10 µM [24]: 83%; IC50 [25]: 4 ± 0.249 µM; inhibition [25]: 37.6 ± 2.61%
O=C(c1nc2ccccc2[nH]1)[C@H]1[C@H](c2cccc(F)c2)C2CSCN2[C@]12C(=O)Nc1ccccc12 (stereo partly drawn) [Compound 6m, (3S,6′R)-6'-(1H-Benzo [d]imidazole-2-carbonyl)-7'-(3-fluorophenyl)-3′,6′,7′,7a′-tetrahydro-1′H-spiro [indoline-3.5′-pyrrolo [1,2-c]thiazol]-2-one] | 99.7 | 92.6 | 90.7 | 99.8 | 84.4 | 86 | 88.6 | 96.1 | 91.9 | 106 | 95.7 | 102 | 80.1 | 84.6 | 90.5 | 94.9 | 95.9 | 100 | 90.2 | 116 | inhibition at 10 µM [21]: 105%; inhibition at 10 µM [22]: 78.2%; inhibition at 10 µM [23]: 99.5%; inhibition at 10 µM [24]: 79.8%; IC50 [25]: 4.73 ± 0.224 µM; inhibition [25]: 62.8 ± 3.91%
O=C(c1nc2ccccc2[nH]1)[C@H]1[C@H](c2ccco2)C2CSCN2[C@]12C(=O)Nc1ccccc12 (stereo partly drawn) [Compound 6n, (3S,6′R)-6'-(1H-Benzo [d]imidazole-2-carbonyl)-7'-(furan-2-yl)-3′,6′,7′,7a′-tetrahydro-1′H-spiro [indoline-3.5′-pyrrolo [1,2-c]thiazol]-2-one] | 113 | 92.2 | 92.9 | 101 | 98.6 | 115 | 102 | 109 | 96.8 | 109 | 124 | 107 | 90.6 | 92.4 | 97.2 | 101 | 101 | 104 | 93.7 | 133 | inhibition at 10 µM [21]: 114%; inhibition at 10 µM [22]: 91.3%; inhibition at 10 µM [23]: 110%; inhibition at 10 µM [24]: 84.8%; IC50 [25]: 6.14 ± 0.246 µM; inhibition [25]: 52.9 ± 2.5%
